# Entries after “also recorded” stand apart in the source; their conditions may differ.
# How the values were obtained:
# [1] = test system: influenza virus strain PR8; type: cell-based
# [2] = test system: H7N7 A/Equine/London/1416/73 influenza virus strain; parameters: species or system mice; details: mouse, in vivo
smiles,measurement,setting,value
Cc1ccccc1-n1c(Cn2cnc3c(N)ncnc32)nc2cccc(C)c2c1=O [IC87114],influenza virus replication,[1],inhibits influenza virus replication
same,viral mRNA production reduced compared to untreated cells,[1],~25 fold
same,survival after lethal challenge,[2],increased survival; also recorded: protects mice lethally challenged with virulent influenza virus
same,survival of A549 cell,A549 cell,did not affect the survival
